Structures can show the parent of a compound that is named as a salt.

One experiment relates to Acinetobacter baumannii ATCC17961. As to the kind of experiment: 90% growth inhibitory concentration (IC90) determination, antimicrobial susceptibility testing. In kind it is cell-based. Particulars: 90% growth inhibition, Iso-Sensitest broth, OD 600 nm over 16 h, 35±2° C.; read-out: ATCC 17961 IC90. The protocol:
Antimicrobial Susceptibility Testing:
90% Growth Inhibitory Concentration (IC90) Determination
The in vitro antimicrobial activity of the compounds was determined according to the following procedure:
The assay used a 10-points Iso-Sensitest broth medium to measure quantitatively the in vitro activity of the compounds against Acinetobacter baumannii ATCC17961 and ATCC17978.
Stock compounds in DMSO were serially twofold diluted (e.g. range from 50 to 0.097 μM final concentration) in 384 wells microtiter plates and inoculated with 49 μl the bacterial suspension in Iso-Sensitest medium to have a final cell concentration of ˜5×10^(5) CFU/ml in a final volume/well of 50 ul/well. Microtiter plates were incubated at 35±2° C.
Bacterial cell growth was determined with the measurement of optical density at λ=600 nm each minutes over a time course of 16 h. Growth inhibition was calculated during the logarithmic growth of the bacterial cells with determination of the concentration inhibiting 50% (IC50) and 90% (IC90) of the growth.
Table 2 provides the 90% growth inhibitory concentrations (IC90) in micromoles per liter of the compounds of present invention obtained against the strain Acinetobacter baumannii ATCC17961.
Regarding `CCc1cc(Nc2nccn3c(-c4ccc(OC)c(F)c4F)cnc23)ccc1C(=O)NCC[C@H](NC(=O)C1CC[N+](C)(CC2CNC2)CC1)C(=O)OC` (mixture of isomers) [Example 121, Methyl (2S)-2-[[1-(azetidin-3-ylmethyl)-1-methyl-piperidin-1-ium-4-carbonyl]amino]-4-[[4-[[3-(2,3-difluoro-4-methoxy-phenyl)imidazo[1,2-a]pyrazin-8-yl]amino]-2-ethyl-benzoyl]amino]butanoate formate 2,2,2-trifluoroacetate (Mixed Salt)], the IC90 (in general, the concentration at which the effect reaches the 90% level) came to 854 nM. Take `CCc1cc(Nc2nccn3c(-c4ccc(OC)c(F)c4F)cnc23)ccc1C(=O)NCC[C@H](NC(=O)C1CC[N+](C)(CC2CNC2)CC1)C(=O)OC` (mixture of isomers) [Example 123, Methyl (2S)-2-[[1-(azetidin-3-ylmethyl)-1-methyl-piperidin-1-ium-4-carbonyl]amino]-4-[[4-[[3-(2,3-difluoro-4-methoxy-phenyl)imidazo[1,2-a]pyrazin-8-yl]amino]-2-ethyl-benzoyl]amino]butanoate formate 2,2,2-trifluoroacetate (Mixed Salt)]: the IC90 is 5000 nM.

Still in this experiment, the particulars now being: Acinetobacter baumannii, ATCC17961, 16 h, 90% growth inhibition, Iso-Sensitest broth, OD 600 nm over 16 h, 35±2° C.; read-out: ATCC 17961 IC90.
Take `CCc1cc(Nc2nccn3c(-c4ccc(OC)c(F)c4F)cnc23)ccc1C(=O)NC[C@H](NC(=O)C1CC[N+](C)(CC2CNC2)CC1)C(=O)OC` (mixture of isomers) [Example 120, Methyl (2S)-2-[[1-(azetidin-3-ylmethyl)-1-methyl-piperidin-1-ium-4-carbonyl]amino]-3-[[4-[[3-(2,3-difluoro-4-methoxy-phenyl)imidazo[1,2-a]pyrazin-8-yl]amino]-2-ethyl-benzoyl]amino]propanoate formate 2,2,2-trifluoroacetate (Mixed Salt)]: the IC90 is 682 nM. On to `CCc1cc(Nc2nccn3c(-c4ccc(OC)c(F)c4F)cnc23)ccc1C(=O)N[C@@H](CNC(=O)C1CC[N+](C)(CC2CNC2)CC1)C(=O)OC` (mixture of isomers) [Example 122, Methyl (2S)-3-[[1-(azetidin-3-ylmethyl)-1-methyl-piperidin-1-ium-4-carbonyl]amino]-2-[[4-[[3-(2,3-difluoro-4-methoxy-phenyl)imidazo[1,2-a]pyrazin-8-yl]amino]-2-ethyl-benzoyl]amino]propanoate formate 2,2,2-trifluoroacetate (Mixed Salt)], for which the IC90 was 1110 nM. As to `CCc1cc(Nc2nccn3c(-c4ccc(OC)c(F)c4F)cnc23)ccc1C(=O)N[C@H]1[C@@H]2C[N+](C)(CC3CNC3)C[C@@H]21` (mixture of isomers) [Example 137, 4-[[3-(2,3-Difluoro-4-methoxy-phenyl)imidazo[1,2-a]pyrazin-8-yl]amino]-2-ethyl-N-[rac-(1S,5R)-3-(azetidin-3-ylmethyl)-3-methyl-3-azoniabicyclo[3.1.0]hexan-6-yl]benzamide bis(2,2,2-trifluoroacetate)], the IC90 is 1220 nM.

Regarding `CCc1cc(Nc2nccn3c(-c4ccc(Oc5ncccn5)c(F)c4F)cnc23)ccc1C(=O)NCCCNC(=O)C1CC[N+](C)(CC2CCNC2)CC1` (stereo not shown) [Example 3, N-[3-[[4-[[3-(2,3-difluoro-4-pyrimidin-2-yloxy-phenyl)imidazo[1,2-a]pyrazin-8-yl]amino]-2-ethyl-benzoyl]amino]propyl]-1-methyl-1-(pyrrolidin-3-ylmethyl)piperidin-1-ium-4-carboxamide Formate], the IC90 came to 484 nM. In the case of `CCc1cc(Nc2nccn3c(-c4cn(CC#N)nc4C(F)(F)F)cnc23)ccc1C(=O)NCCOCC[N+]1(CC#N)CCCC1` [Example 4, 1-(Cyanomethyl)-1-(2-(2-(4-((3-(1-(cyanomethyl)-3-(trifluoromethyl)-1H-pyrazol-4-yl)imidazo[1,2-a]pyrazin-8-yl)amino)-2-ethylbenzamido)ethoxy)ethyl)pyrrolidin-1-ium Formate], the IC90 worked out at 267 nM. Regarding `C[N+](C)(C)CC(=O)NCCCNC(=O)c1ccc(Nc2nccn3c(-c4c[nH]nc4C(F)(F)F)cnc23)cc1Cl` [Example 7, [2-[3-[[2-Chloro-4-[[3-[3-(trifluoromethyl)-1H-pyrazol-4-yl]imidazo[1,2-a]pyrazin-8-yl]amino]benzoyl]amino]propylamino]-2-oxo-ethyl]-trimethyl-ammonium Formate], the IC90 was 1160 nM. As for `CCc1cc(Nc2nccn3c(-c4cn(CC(F)F)nc4C(F)(F)F)cnc23)ccc1C(=O)NCCCCC[N+](C)(CC(=O)O)CC1CNC1` (stereo not shown) [Example 8, azetidin-3-ylmethyl-(carboxymethyl)-[5-[[4-[[3-[1-(2,2-difluoroethyl)-3-(trifluoromethyl)pyrazol-4-yl]imidazo[1,2-a]pyrazin-8-yl]amino]-2-ethyl-benzoyl]amino]pentyl]-methyl-ammonium Formate], the 90% effect concentration (IC90) was found to be 600 nM.

Turning to `CCc1cc(Nc2nccn3c(-c4ccc(OC(F)F)c(F)c4F)cnc23)ccc1C(=O)N1CCN(C(=O)C2CC[N+](C)(CC(N)=O)CC2)CC1` (stereo not shown) [Example 9, 1-(2-amino-2-oxoethyl)-4-(4-(4-((3-(4-(difluoromethoxy)-2,3-difluorophenyl)imidazo[1,2-a]pyrazin-8-yl)amino)-2-ethylbenzoyl)piperazine-1-carbonyl)-1-methylpiperidin-1-ium Formate], the IC90 is 63.5 nM. Take `CCc1cc(Nc2nccn3c(-c4ccc(OC(F)F)c(F)c4F)cnc23)ccc1C(=O)NCCC1CC[N+](C)(CC2CNC2)CC1` (stereo not shown) [Example 10, N-[2-[1-(azetidin-3-ylmethyl)-1-methyl-piperidin-1-ium-4-yl]ethyl]-4-[[3-[4-(difluoromethoxy)-2,3-difluoro-phenyl]imidazo[1,2-a]pyrazin-8-yl]amino]-2-ethyl-benzamide Diformate]: the IC90 was 157 nM. On to `CCc1cc(Nc2nccn3c(-c4ccc(OC)c(F)c4F)cnc23)ccc1C(=O)NCCCCC[N+](C)(CCCCCN)CC(=O)O` (stereo not shown) [Example 11, 5-Aminopentyl-(carboxymethyl)-[5-[[4-[[3-(2,3-difluoro-4-methoxy-phenyl)imidazo[1,2-a]pyrazin-8-yl]amino]-2-ethyl-benzoyl]amino]pentyl]-methyl-ammonium 2,2,2-trifluoroacetate], for which the IC90 came out at 131 nM. In the case of `COc1ccc(-c2cnc3c(Nc4ccc(C(=O)N5CCN(C(=O)C[N+](C)(C)C)CC5)c(Cl)c4)nccn23)c(F)c1F` [Example 12, 2-(4-(2-Chloro-4-((3-(2,3-difluoro-4-methoxyphenyl)imidazo[1,2-a]pyrazin-8-yl)amino)benzoyl)piperazin-1-yl)-N,N,N-trimethyl-2-oxoethan-1-aminium Iodide], the IC90 was determined as 44.7 nM. Turning to `COc1ccc(-c2cnc3c(Nc4cc(C)c(C(=O)NCCOCC[N+](C)(C)C)c(F)c4)nccn23)c(F)c1F` [Example 18, 2-(2-(4-((3-(2,3-Difluoro-4-methoxyphenyl)imidazo[1,2-a]pyrazin-8-yl)amino)-2-fluoro-6-methylbenzamido)ethoxy)-N,N,N-trimethylethan-1-aminium Hydrogen Carbonate], the IC90 came out at 336 nM. With `COc1ccc(-c2cnc3c(Nc4ccc(C(=O)N5CCN(C(=O)[C@@H]6C[C@@H](O)C[N+]6(C)C)CC5)c(C)c4)nccn23)c(F)c1F` [Example 55, (2S,4R)-2-(4-(4-((3-(2,3-Difluoro-4-methoxyphenyl)imidazo[1,2-a]pyrazin-8-yl)amino)-2-methylbenzoyl)piperazine-1-carbonyl)-4-hydroxy-1,1-dimethylpyrrolidin-1-ium Formate], the IC90 was 132 nM. For the compound `Cc1cc(Nc2nccn3c(-c4ccc(OCC#N)c(F)c4F)cnc23)ccc1C(=O)N1CCN(C(=O)C[N+](C)(C)C)CC1` [Example 56, [2-[4-[4-[[3-[4-(Cyanomethoxy)-2,3-difluorophenyl]imidazo[1,2-a]pyrazin-8-yl]amino]-2-methylbenzoyl]piperazin-1-yl]-2-oxoethyl]-trimethylazanium Iodide], the IC90 worked out at 59.6 nM. As for `Cc1cc(Nc2nccn3c(-c4ccc(OC(F)F)cc4)cnc23)ccc1C(=O)N(C)CCC1CC[N+](C)(CCCC(=O)O)CC1` (stereo not shown) [Example 57, 4-[4-[2-[[4-[[3-[4-(Difluoromethoxy)phenyl]imidazo[1,2-a]pyrazin-8-yl]amino]-2-methylbenzoyl]-methylamino]ethyl]-1-methylpiperidin-1-ium-1-yl]butanoic acid Hydrochloride], the IC90 was determined as 2180 nM. Regarding `C[N+](C)(C)CC(=O)NCCNC(=O)c1ccc(Nc2nccn3c(-c4c[nH]nc4C(F)(F)F)cnc23)cc1Cl` [Example 58, [2-[2-[[2-Chloro-4-[[3-[3-(trifluoromethyl)-1H-pyrazol-4-yl]imidazo[1,2-a]pyrazin-8-yl]amino]benzoyl]amino]ethylamino]-2-oxo-ethyl]-trimethyl-ammonium formate], the IC90 worked out at 1580 nM. Turning to `COc1ccc(-c2cnc3c(Nc4ccc(C(=O)N[C@H]5C[C@@H](NC(=O)C[N+](C)(C)C)C5)c(Cl)c4)nccn23)c(F)c1F` [Example 59, [2-[[3-[[2-Chloro-4-[[3-(2,3-difluoro-4-methoxy-phenyl)imidazo[1,2-a]pyrazin-8-yl]amino]benzoyl]amino]cyclobutyl]amino]-2-oxo-ethyl]-trimethyl-ammonium formate], the IC90 came to 41 nM.

Values taken from patent US20230141600A1, “IMIDAZOPYRAZINE DERIVATIVES” (priority 2020, published 2023).
